Test results taken from patent US11260096B2, “Compositions for creatine supplementation in creatine non-responders” (ThermoLife International, LLC, priority 2019, dated 2022).
Values joined by “and” are separate entries in the source; they are usually repeats but may differ in a detail not shown here. Equal entries are not always repeated. “Also recorded” adds a separate entry of the source.

Columns and labels:
[1] = adverse events evaluated via open-ended questionnaires; format: in vivo, human; conditions: 5-day intervention, single participants
Protocol: Estimated glomerular filtration rate (eGFR) was calculated by the abbreviated MDRD equation (Stevens et al., Am J Kidney Dis. 2007; 50: 21-35). […] Twelve datasets were obtained for each individual yielding a total of 120 spectra in this study. In vivo metabolite concentrations were calculated using the muscle water signal as an internal intensity reference (Wang et al., J Magn Reson. 2014, 243: 81-84). The spectra were fitted in the time domain using a nonlinear least squares algorithm ([…]) in the Java-based magnetic resonance user interface (jMRUI) software package. […] Finally, possible adverse events of the intervention (e.g. muscle cramps, bloating, diarrhea) were evaluated via open-ended questionnaires administered during the trial.

[2] = single-dose pharmacokinetics experiment: serum creatine and creatinine by LC-MS/MS; format: in vivo, human; conditions: for AUC (serum creatine) after single-dose intervention: linear-log trapezoidal method
Protocol: (§1) Ten healthy young men (age 23.6±2.9 years, body mass index 23.8±1.5 kg/m′) were recruited and signed informed consent to voluntarily participate in this double-blind, crossover, randomized controlled trial. All experimental procedures were approved by the local institutional review board, and the study was conducted in accordance with the Declaration of Helsinki. All participants had no history of creatine supplementation (or other dietary supplements) within the 4 weeks before the study commenced. All participants also had no acute or chronic diseases as evaluated by pre-participation health check and blood profiles. All participants were required to maintain their normal activity patterns and diet during the study. The participants were required to not engaged in any exhaustive exercise 24 hours before the study commenced.
(§2) Washout period of 7 days was employed between all trials to prevent the residual or carry-over effects of treatments across study periods. For the single-dose experiment, participants were administered a liquid composition that was prepared by a researcher by dissolving a powder of their respective treatment compounds in 150 mL of lukewarm water. For the 5-day intervention, the participants received five powder sachets (one per day) containing an treatment compounds. The participants were advised to stir the content of the sachet into 150 mL of lukewarm water until the powder has dissolved and to drink the liquid composition about 30 minutes before breakfast. […] Clinical assessments for both experiments were carried out between 08:00 and 12:00 after an overnight fast of 12 hours. Venous blood samples were drawn at each time point (7 points in total) for a single-dose experiment, and serum analyzed for creatine and creatinine by modified LC-MS/MS (1200 Series LC System; Agilent Technologies Inc., Santa Clara, Calif., USA). To control for variance based on different hydration levels, all participants were restricted from water ingestion between the time of collecting the baseline sample and 120 minutes after administration of the treatment. For 5-day experiment, venous blood samples were drawn at baseline and at the various follow-up times, with serum analyzed for liver enzymes by an automated analyzer (Randox Laboratories Ltd., Crumlin, UK).
Where significant differences were found, the Tukey post-hoc test was employed to identify the differences. The area under the concentration-time curve (AUC) for serum creatine and creatinine were calculated using the linear-log trapezoidal method, with AUCs compared with one-way ANOVA. The significance level was set at P<0.05. Data were analyzed using the SPSS program (SPSS Inc., Chicago, Ill., USA).

[3] = 5-day intervention: liver enzymes and estimated glomerular filtration rate (safety biomarkers); format: in vivo, human
Protocol: as §1
as §2, with “Creatinine anhydrous has been produced from creatine monohydrate in an autoclave (Memmert UF 55, Schwabach, Germany) at 160° C.” for “Clinical assessments”, “72 hours, with creatinine purity>99% in a final powder, as determined by NMR spectroscopy (Bruker Avance III 400, Billerica, Mass.). […]” for “both experiments were carried out between 08:00 and 12:00 after an overnight fast of 12 hours.”, “To control for variance based on different hydration levels, all participants were restricted from water ingestion between the time of collecting the baseline sample and 120 minutes after administration of the treatment.” left out
Estimated glomerular filtration rate (eGFR) was calculated by the abbreviated MDRD equation (Stevens et al., Am J Kidney Dis. 2007; 50: 21-35). […] In vivo metabolite concentrations were calculated using the muscle water signal as an internal intensity reference (Wang et al., J Magn Reson. 2014, 243: 81-84). […] The peak integral values of the total creatine (creatine plus phosphocreatine) signal at 3.0 ppm and the non-suppressed water signal at 4.7 ppm were quantified using curve-fitting to Gaussian lines. […]

[4] = 5-day intervention: total muscle creatine by proton magnetic resonance spectroscopy (MRS); format: in vivo, human; conditions: after five-day intervention vs baseline
Protocol: as §1, with “The participants were required to not engaged in any exhaustive exercise 24 hours before the study commenced.” left out
Washout period of 7 days was employed between all trials to prevent the residual or carry-over effects of treatments across study periods. […] Creatinine anhydrous has been produced from creatine monohydrate in an autoclave (Memmert UF 55, Schwabach, Germany) at 160° C. for 72 hours, with creatinine purity>99% in a final powder, as determined by NMR spectroscopy (Bruker Avance III 400, Billerica, Mass.). […] Venous blood samples were drawn at each time point (7 points in total) for a single-dose experiment, and serum analyzed for creatine and creatinine by modified LC-MS/MS (1200 Series LC System; Agilent Technologies Inc., Santa Clara, Calif., USA). […]

[5] = cited from earlier work

Row | Compound | reported side effects / adverse events (in words) ([1]; nitrate) | concentration at 60 min ([2]; male, human, in vivo, single oral dose (3 g CN + 3 g creatinine, 3 g CN or 3 g CRM), peak time, n=10 healthy men, read-out: average serum creatine concentration at 60 minutes post-administration) | change in serum creatinine during the single-dose study (in words) ([2]; single oral dose) | AUC (serum creatine) after single-dose intervention ([2]; single oral dose) | participants with mildly reduced kidney function (eGFR 60-89 mL/min/1.73 m^2) ([3]; 5-day intervention, n=10) | eGFR ([3]; at 5-day follow-up, mean ± SD, abbreviated MDRD equation) | average increase in total muscle creatine levels [4] | reported side effects / adverse events (in words) [1] | AUC for serum creatinine ([2]; single oral dose) | eGFR ([3]; in vivo) | participants with mildly reduced kidney function (eGFR 60-89 mL/min/1.73 m^2) ([3]; in vivo) | increase of total creatine content in skeletal muscles ([5]; dosages up to 30 g for a few days, human subject) | individuals who do not respond to creatine supplementation (prevalence of non-responders) ([5]; less than 10 mmol/kg dw increase in resting total muscle creatine after five days at 20 g/day)
1 | CN(CC(=O)O)C(=N)N.O=[N+]([O-])O [CN, creatine nitrate] | irregular non-diarrheal bowel movements; also recorded: excessive sleepiness | 164 ± 12.9 µM | remained essentially unchanged | 622.7 ± 62.9 µmol·min/L | 40.0% | 89.8 ± 8.1 mL/min/1.73 m^2 | 8.0% | – | – | – | – | – | –
2 | CN(CC(=O)O)C(=N)N.O [CRM, creatine monohydrate] | – | – | remained essentially unchanged | 466.3 ± 47.9 µmol·min/L | – | – | 2.1% | episodes of bloating | 607.5 ± 37.7 µmol·min/L | 91.7 ± 8.3 mL/min/1.73 m^2 | 30.0% | more than 20% | –
3 | CN(CC(=O)O)C(=N)N [creatine] | – | – | – | – | – | – | – | – | – | – | – | – | about 25% and 20-30%
